Experimental data as given in US5439899A, “Cosalane and related compounds having activity against aids and aids-related infections” (priority 1993, dated 1995).
Several values for one entry are separate records, joined by “and”; a condition that tells them apart may be missing. Equal entries are not always repeated. Where two headings read alike, the source gives them in different places.

Experiments:
[1] = system: T4 lymphocytes (CEM cell line); test: NCI in vitro anti-HIV screen, growth inhibition of uninfected CEM cells (XTT); type: cell-based; conditions: for IC50: read-out: IC50 (50% inhibitory concentration); for cytotoxicity (statement): NCI anti-HIV screen, CEM cells
Protocol: (§1) The assay includes the killing of T4 lymphocytes by HIV. Pursuant to the test, small amounts of HIV are added to cells, and a complete cycle of virus reproduction is necessary to obtain the required cell killing. Agents that interact with virions, cells, or virus gene-products to interfere with viral activities will protect cells from cytolysis. The system is thus designed to detect anti-HIV activity. However, compounds that degenerate or are rapidly metabolized in the culture conditions may not show activity in this screen. All tests are compared with at least one positive (e.g., AZT-treated) control done at the same time under identical conditions.
(§2) 1. The candidate agent is dissolved in dimethyl sulfoxide (unless otherwise instructed), then diluted 1:200 in cell culture medium. Further dilutions (half-log10) are prepared before adding to 96-well microtiter plates.
(§3) 2. T4 lymphocytes (CEM cell line) are exposed to HIV at a virus-to-cell ratio of approximately 0.05 and are plated along with non-infected control cells into drug-containing wells or wells with medium alone.
(§4) 3. Cultures are incubated at 37° in a 5% carbon dioxide atmosphere for 6 days.
(§5) 4. The tetrazolium salt, XTT, is added to all wells, and cultures are incubated to allow formazan color development by viable cells.
(§6) 5. […] are analyzed spectrophotometrically to quantitate formazan production and, in addition, are viewed microscopically for detection of viable cells and confirmation of protective activity.
(§7) 6. Drug-treated virus-infected cells are compared with drug-treated non-infected cells and with other appropriate controls (untreated infected and untreated non-infected cells, drug-containing wells without cells, etc.) on the same plate.
(§8) 7. Data are reviewed in comparison with other tests performed at the same time, and a determination about activity is made.
Survival values of this parameter less then 50% are considered acceptable in the current protocol.

HIV = test: NCI in vitro anti-HIV screen (XTT soluble-formazan assay, protection of HIV-infected CEM cells); type: cell-based; conditions: for EC50: approximate values, one value per run; for anti-HIV effect (statement): NCI anti-HIV screen, in vitro, CEM cells; for TI50 (IC/EC), therapeutic index: ratio IC50/EC50 of the same run
Description: as §1, with “The National Cancer Institute's procedure for testing for agents active against Human Immunodeficiency Virus (HIV) (Weislow, O. W. et al, "New soluble-formazan assay for HIV-1 cytopathic effects: application to high-flux screening of synthetic and natural products for AIDS-antiviral activity," J. Natl. Cancer Inst., 81, 577-586, 1989) is designed to detect agents acting at any stage of the virus reproductive cycle. The assay” for “The assay”
as §2, §3, §4, §5, §6, §7, §8
Approximate values for 50% effective concentration (EC50) (protection in infected cells), 50% inhibitory concentration (IC50) and the therapeutic index (IC50 /EC50) have been calculated for each test and are provided in the tables of each Example.
Examples 1, 6 and 8 compounds, respectively, against the measured test values expressed as a percentage of the uninfected, untreated control values. The solid line depicts the percentage of surviving HIV-infected cells treated with sample (at the indicated concentration) relative to uninfected, untreated controls. The solid line expresses the in vitro anti-HIV activity of the compound of the tested compound. The dashed line depicts the percentage of surviving uninfected cells treated with the compound of the Example relative to the same uninfected, untreated controls. The dashed line expresses the in vitro growth inhibitory properties of the compound of the Example. The viral cytopathic effect of a compound of each Example is indicated by a combination of dashes and dots. […] Survival values of this parameter less then 50% are considered acceptable in the current protocol.

[2] = drug-treated uninfected CEM cells, 6 days, XTT, approximate values, one value per run
[3] = Human immunodeficiency virus 1, CCRF-CEM, 144 h, read-out: EC50 (50% effective concentration, protection in infected cells), HIV-infected CEM cells, 6 days, XTT
[4] = Homo sapiens, CCRF-CEM, 144 h, drug-treated uninfected CEM cells, 6 days, XTT, approximate values, one value per run
[5] = HIV-infected CEM cells, 6 days, XTT, read-out: EC50 (50% effective concentration, protection in infected cells)
[6] = Human immunodeficiency virus 1, CCRF-CEM, 144 h, HIV-infected CEM cells, 6 days, XTT, read-out: EC50 (50% effective concentration, protection in infected cells)

| Compound | IC50 [1, 2] | TI50 (IC/EC), therapeutic index (HIV) | IC50 [1, 4] | EC50 (HIV; [6]) | also measured |
| --- | --- | --- | --- | --- | --- |
| CC(CCC=C(c1cc(Cl)c(O)c(C(=O)O)c1)c1cc(Cl)c(O)c(C(=O)O)c1)C1CC[C@H]2[C@@H]3CC[C@H]4CCCC[C@]4(C)[C@H]3CC[C@]12C (stereo partly shown) [Formula IX] | > 59 µM and > 69 µM and 79 µM |  |  |  |  |
| CC(C)CCC[C@@H](C)[C@H]1CC[C@H]2[C@@H]3CC[C@H]4C[C@@H](CCCC(c5cc(Cl)c(O)c(C(=O)O)c5)c5cc(Cl)c(O)c(C(=O)O)c5)CC[C@]4(C)[C@H]3CC[C@]12C [Formula VI, (5α)-3β-[4,4-Di(3'-ammoniumcarboxy-5'-chloro-4'-hydroxy)phenyl-1-butyl]cholestane] |  | > 1.80 × 10^+1 and > 2.10 × 10^+1 and > 1.30 × 10^+1 and > 1.20 × 10^+1 |  |  | IC50 ([1]; Homo sapiens, CCRF-CEM, 144 h): > 310 µM; EC50 (HIV; [3]): 17 µM; anti-HIV effect (statement) (HIV): greatest effect on inhibiting HIV-infected cells, while having a lesser effect on uninfected cells; EC50 (HIV; read-out: EC50 (50% effective concentration, protection in infected cells), HIV-infected CEM cells, 6 days, XTT): 15 µM and 23 µM and 25 µM |
| COc1c(Cl)cc(C(=CCC[C@H]2CC[C@@]3(C)[C@@H](CC[C@@H]4[C@@H]3CC[C@]3(C)[C@@H]([C@H](C)CCCC(C)C)CC[C@@H]43)C2)c2cc(Cl)c(OC)c(C(=O)O)c2)cc1C(=O)O [Formula V] |  |  |  |  | IC50 ([1]; Homo sapiens, CCRF-CEM, 144 h): > 300 µM; anti-HIV effect (statement) (HIV): greatest effect on inhibiting HIV-infected cells, while having a lesser effect on uninfected cells |
| C[C@H](CCC=C(c1cc(Cl)c(O)c(C(=O)O)c1)c1cc(Cl)c(O)c(C(=O)O)c1)[C@H]1CC[C@H]2[C@@H]3CC[C@@H]4CC(F)(F)CC[C@]4(C)[C@H]3CC[C@]12C [Formula X, (5β)-3,3-difluoro-17-[5,5-di(3-ammoniumcarboxy-5-chloro-4-hydroxy)phenyl-1-methyl-4-pentenyl]androstane] |  | 1.80 × 10^0 | 41 µM |  | EC50 (HIV; [3]): 24 µM |
| CCCCCCCCCCCCCCCCCCCCCCCCCCCCCC=C(c1cc(Cl)c(O)c(C(=O)O)c1)c1cc(Cl)c(O)c(C(=O)O)c1 [Formula XI, 1,1-di(3'-ammoniumcarboxy-5'-chloro-4'hydroxy) phenyl-1-untriacontene] | > 220 µM | > 1.67 × 10^+1 and > 1.36 × 10^+4 and > 1.90 × 10^+1 and > 2.40 × 10^+1 | > 222 µM | 13.3 µM | EC50 (HIV; [5]): 16.3 µM and 11 µM and 9.3 µM; anti-HIV effect (statement) (HIV): greatest effect on inhibiting HIV-infected cells, while having a lesser effect on uninfected cells |
| CCCCCC=C(c1cc(Br)c(OC)c(C(=O)OC)c1)c1cc(Br)c(OC)c(C(=O)OC)c1 [Formula XII, 1,1-di(5'-bromo-3'-carbomethoxy-4'-methoxy)phenyl-1-heptene] |  |  | > 8.95 µM |  | anti-HIV effect (statement) (HIV): greatest effect on inhibiting HIV-infected cells, while having a lesser effect on uninfected cells; anti-HIV effect (statement) (HIV; listed as structure XII): most effective compounds studied in terms of prevention of the cytopathic effect of HIV in CEM lymphocytes |
| CCCCCCCCCC=C(c1cc(Cl)c(O)c(C(=O)O)c1)c1cc(Cl)c(O)c(C(=O)O)c1 [Formula XIII, 1,1-di(3'-ammoniumcarboxy-5'-chloro-4'-hydroxy)phenyl-1-undecene] |  | > 1.32 × 10^0 | > 49.1 µM | 37.3 µM |  |
| CCCCCCCCCCCCCCCC=C(c1cc(Cl)c(O)c(C(=O)O)c1)c1cc(Cl)c(O)c(C(=O)O)c1 [Formula XIV, 1,1-di(3'-ammoniumcarboxy-5'-chloro-4'-hydroxy)phenyl-1-heptadecene] |  | > 7.57 × 10^0 | > 35 µM | 4.62 µM |  |
| COC(=O)c1cc(C(=CCCBr)c2cc(Cl)c(OC)c(C(=O)OC)c2)cc(Cl)c1OC [Formula XIX, 4-bromo-1,1-di(3'-carbomethoxy-5'-chloro4'-methoxy)phenyl-1-butene] | 15.2 µM | 2.62 × 10^0 and 1.96 × 10^0 | 21.5 µM | 8.19 µM | EC50 (HIV; [5]): 7.73 µM |
| CCCCCC=C(c1cc(Cl)c(OC)c(C(N)=O)c1)c1cc(Cl)c(OC)c(C(N)=O)c1 [Formula XVI, 1,1-di(3'-carbamoyl-5'-chloro-4'-methoxy)phenyl-1-heptene] | 17.2 µM and 16.3 µM and 13.4 µM |  | 17.4 µM |  |  |
| CCCCCCCCCCC(c1ccc(O)c(C(=O)O)c1)c1ccc(O)c(C(=O)O)c1 [Formula XVIII] |  | 2.55 × 10^0 | 84.6 µM | 33.2 µM |  |
| O=C(O)c1cc(C(=CCCBr)c2cc(Cl)c(O)c(C(=O)O)c2)cc(Cl)c1O [Formula XVII] | 237 µM and 181 µM and 258 µM | 1.58 × 10^0 and 1.93 × 10^0 and 1.50 × 10^0 and 2.71 × 10^0 | 214 µM | 136 µM | EC50 (HIV; [5]): 122 µM and 121 µM and 95.1 µM |
| CCCCCC=C(c1cc(Br)cc(C(=O)O)c1O)c1cc(Br)cc(C(=O)O)c1O [Formula XV] |  | > 1.43 × 10^0 | > 21.8 µM | 15.3 µM |  |
| CCCCCCCCCC=C(c1cc(Br)c(O)c(C(=O)O)c1)c1cc(Br)c(O)c(C(=O)O)c1 [Formula XX, 1,1-di(3'-ammoniumcarboxy-5'-bromo-4'-hydroxy)phenyl-1-undecene] |  | > 3.44 × 10^0 | > 191 µM | 55.5 µM |  |
| CCCCCCCCCC=C(c1cc(Br)cc(C(=O)O)c1OC)c1cc(Br)cc(C(=O)O)c1OC [Formula XXIII, 1,1-[di-(3'-ammoniumcarboxy-5'-bromo-2'methoxy)phenyl]-1-undecene] | 79.5 µM and 68.3 µM and 69.8 µM |  | 88.9 µM |  | cytotoxicity (statement) [1]: cytotoxic |
| CCCCCCCCCCCCCCCCC(c1ccc(O)c(C(=O)O)c1)c1ccc(O)c(C(=O)O)c1 [Formula XXII] | 51.4 µM and 119 µM | 1.56 × 10^0 and 3.06 × 10^+1 and 3.05 × 10^+1 |  |  | EC50 (HIV; [5]): 3.9 µM |
| CCCCCCCCCCCCCCCC=C(c1cc(Cl)c(OC)c(C(=O)O)c1)c1cc(Cl)c(OC)c(C(=O)O)c1 [Formula XXIV, 1,1-di(3'-carboxy-5'-chloro-4'-methoxy)phenyl-1-heptadecene] | 25.9 µM |  | 26.6 µM |  | cytotoxicity (statement) [1]: cytotoxic |
| CCCCCC=C(c1cc(Br)cc(C(=O)O)c1OC)c1cc(Br)cc(C(=O)O)c1OC [Formula XXI] | 244 µM | 1.80 × 10^0 and 3.52 × 10^0 | 175 µM | 97.1 µM | EC50 (HIV; [5]): 69.3 µM |
| CCCCCC=C(c1cc(Cl)c(OC)c(C(=O)OC)c1)c1cc(Cl)c(OC)c(C(=O)OC)c1 [Formula XXVI, di(3'-carbomethoxy-5'-chloro-4'-methoxy)phenyl-1-heptene] | > 28.2 µM |  | > 29.1 µM |  |  |
| CCCCCCCCCC=C(c1cc(Cl)c(OC)c(C(=O)O)c1)c1cc(Cl)c(OC)c(C(=O)O)c1 [Formula XXVII, 1,1-di(3'-ammoniumcarboxy-5'-chloro-4'methoxy) phenyl-1-undecene] | 166 µM and 169 µM |  | 149 µM |  |  |
| COc1c(Cl)cc(C(=Cc2c(F)c(F)c(F)c(F)c2F)c2cc(Cl)c(OC)c(C(=O)O)c2)cc1C(=O)O [Formula XXV] | 552 µM and 412 µM |  | 434 µM | 140 µM | EC50 (HIV; [5]): 102 µM and 176 µM |
| (5α)-3β-[4,4-di(5'-bromo-4'-methoxy-3'-methoxycarbonyl)phenyl-1-buten-3-yl]cholestane [Formula VII] | > 280 µM |  |  |  |  |
